Measurements as given in patent US8394825B2, “Compound” (Sterix Limited, priority 2007, dated 2013).

System: not given
Assay: not given
Settings: not given

Which melting point does the source give for `COc1ccc(CN2CCCc3cc(O)c(OC)cc3C2)cc1` [compound 308, 7-Hydroxy-8-methoxy-2-(4-methoxybenzyl)-2,3,4,5-tetrahydro-1H-benzo[c]azepine] here?
The melting point was 105 to 107 °C.

Which melting point does the source give for `COc1cc2c(cc1O)CCCN(Cc1cc(OC)c(OC)c(OC)c1)C2` [compound 309, 7-Hydroxy-8-methoxy-2-(3,4,5-trimethoxybenzyl)-2,3,4,5-tetrahydro-1H-benzo[c]azepine] here?
The melting point was 46 to 48 °C.

With `COc1cc2c(cc1OCc1ccccc1)CCCN(Cc1cc(OC)c(OC)c(OC)c1)C2=O` [compound 314, 7-Benzyloxy-8-methoxy-2-(3,4,5-trimethoxybenzyl)-2,3,4,5-tetrahydro-1H-benzo[c]azepin-1-one] as the compound, how does the melting point read?
The melting point was 134 to 135 °C.

With `COc1cc2c(cc1OCc1ccccc1)CCCC(=O)N2Cc1cc(OC)c(OC)c(OC)c1` [compound 318, 7-benzyloxy-8-methoxy-1-(3,4,5-trimethoxybenzyl)-4,5-dihydro-1H-benzo[b]azepin-2(3H)-one] as the compound, how does the melting point read?
The melting point was 129 to 130 °C.

With `COc1cc2c(cc1O)CCCC(=O)N2Cc1cc(OC)c(OC)c(OC)c1` [compound 319, 7-Hydroxy-8-methoxy-1-(3,4,5-trimethoxybenzyl)-4,5-dihydro-1H-benzo[b]azepin-2(3H)-one] as the compound, how does the melting point read?
Its melting point is 170 to 171 °C.

System: DU145 cells
Assay: Antiproliferative assay in DU145 cells, WST-1 cell proliferation assay, 96 hours (GI50)
Type: cell-based
Settings: 96 hours post-treatment, triplicate, read-out: DU-145 GI50
Method: Antiproliferative assays. DU145 cells were seeded into 96 well microtiter plates (5000 cells/well) and treated with […] of compounds or with vehicle control. At 96 hours post-treatment, live cell counts were determined by WST-1 cell proliferation assay (Roche, Penzberg, Germany), as per manufacturer's instructions. Viability results were expressed as a percentage of mean control values resulting in the calculation of the 50% growth inhibition (GI50). All experiments were performed in triplicate.

Which GI50 does the source give for `COc1cccc(CN2CCc3cc(OS(N)(=O)=O)c(OC)cc3C2)c1` [compound 72, 7-Methoxy-2-(3-methoxybenzyl)-6-O-sulfamoyl-1,2,3,4-tetrahydroisoquinoline] here?
The GI50 was less than 10 µM.

With `COc1ccc(CN2CCc3cc(OS(N)(=O)=O)c(OC)cc3C2)cc1` [compound 73, 7-Methoxy-2-(4-methoxybenzyl)-6-O-sulfamoyl-1,2,3,4-tetrahydroisoquinoline] as the compound, how does the GI50 read?
Its GI50 is 50 to 100 µM.

Which GI50 does the source give for `COc1cc2c(cc1OS(N)(=O)=O)CCN(Cc1ccccc1)C2` [compound 74, 2-Benzyl-7-methoxy-6-O-sulfamoyl-1,2,3,4-tetrahydroisoquinoline] here?
Its GI50 is 50 to 100 µM.

With `COc1ccccc1CN1CCc2cc(OS(N)(=O)=O)c(OC)cc2C1` [compound 75, 7-Methoxy-2-(2-methoxybenzyl)-6-O-sulfamoyl-1,2,3,4-tetrahydroisoquinoline] as the compound, how does the GI50 read?
The GI50 was less than 10 µM.

For `COc1cc(CN2CCc3cc(OS(N)(=O)=O)c(OC)cc3C2)cc(OC)c1` [compound 76, 2-(3,5-Dimethoxybenzyl)-7-methoxy-6-O-sulfamoyl-1,2,3,4-tetrahydroisoquinoline], which GI50 is on record?
The GI50 was less than 10 µM.

Which GI50 does the source give for `COc1cc2c(cc1OS(N)(=O)=O)CCN(Cc1cccc(C)c1)C2` [compound 77, 7-Methoxy-2-(3-methylbenzyl)-6-O-sulfamoyl-1,2,3,4-tetrahydroisoquinoline] here?
Its GI50 is 10 to 50 µM.

Which GI50 does the source give for `COc1cc2c(cc1OS(N)(=O)=O)CCN(Cc1cccc(Oc3ccccc3)c1)C2` [compound 78, 7-Methoxy-2-(3-phenoxybenzyl)-6-O-sulfamoyl-1,2,3,4-tetrahydroisoquinoline] here?
Its GI50 is 10 to 50 µM.

Which GI50 does the source give for `COc1cc2c(cc1OS(N)(=O)=O)CCN(Cc1cccc(OS(N)(=O)=O)c1)C2` [compound 79, 7-Methoxy-2-(3-(O-sulfamoyl)benzyl)-6-O-sulfamoyl-1,2,3,4-tetrahydroisoquinoline] here?
Its GI50 is 10 to 50 µM.

For `CCOc1cccc(CN2CCc3cc(OS(N)(=O)=O)c(OC)cc3C2)c1` [compound 80, 2-(3-Ethoxybenzyl)-7-methoxy-6-O-sulfamoyl-1,2,3,4-tetrahydroisoquinoline], which GI50 is on record?
Its GI50 is less than 10 µM.

With `COc1cc2c(cc1OS(N)(=O)=O)CCN(Cc1cccc(C(C)=O)c1)C2` [compound 82, 2-(3-Acetylbenzyl)-7-methoxy-6-O-sulfamoyl-1,2,3,4-tetrahydroisoquinoline] as the compound, how does the GI50 read?
Its GI50 is less than 10 µM.

Which GI50 does the source give for `COc1cc2c(cc1OS(N)(=O)=O)CCN(Cc1cccc(NC(C)=O)c1)C2` [compound 85, 2-(3-Acetamidobenzyl)-7-methoxy-6-O-sulfamoyl-1,2,3,4-tetrahydroisoquinoline] here?
Its GI50 is greater than 100 µM.

Which GI50 does the source give for `COc1cc2c(cc1OS(N)(=O)=O)CCN(Cc1cccc(OC(C)=O)c1)C2` [compound 87, 2-(3-Acetoxybenzyl)-7-methoxy-6-O-sulfamoyl-1,2,3,4-tetrahydroisoquinoline] here?
Its GI50 is 50 to 100 µM.

For `COc1cc2c(cc1OS(N)(=O)=O)CCN(Cc1cc(OC)c(OC)c(OC)c1)C2` [compound 90, 7-Methoxy-2-(3,4,5-trimethoxybenzyl)-6-O-sulfamoyl-1,2,3,4-tetrahydroisoquinoline], which GI50 is on record?
The GI50 was less than 10 µM.

Which GI50 does the source give for `COc1cc2c(cc1OS(N)(=O)=O)CCN(Cc1cccc(OC)c1OC)C2` [compound 91, 7-Methoxy-2-(2,3-dimethoxybenzyl)-6-O-sulfamoyl-1,2,3,4-tetrahydroisoquinoline] here?
Its GI50 is less than 10 µM.

For `COc1ccc(CN2CCc3cc(OS(N)(=O)=O)c(OC)cc3C2)cc1OC` [compound 92, 7-Methoxy-2-(3,4-dimethoxybenzyl)-6-O-sulfamoyl-1,2,3,4-tetrahydroisoquinoline], which GI50 is on record?
Its GI50 is less than 10 µM.

Which GI50 does the source give for `COc1cc2c(cc1OS(N)(=O)=O)CCN(Cc1ccc(OC)c(OC)c1OC)C2` [compound 93, 7-Methoxy-2-(2,3,4-trimethoxybenzyl)-6-O-sulfamoyl-1,2,3,4-tetrahydroisoquinoline] here?
The GI50 was 10 to 50 µM.

Which GI50 does the source give for `COc1ccc(OC)c(CN2CCc3cc(OS(N)(=O)=O)c(OC)cc3C2)c1` [compound 94, 7-Methoxy-2-(2,5-dimethoxybenzyl)-6-O-sulfamoyl-1,2,3,4-tetrahydroisoquinoline] here?
Its GI50 is less than 10 µM.

With `COc1cc(OC)c(OC)cc1CN1CCc2cc(OS(N)(=O)=O)c(OC)cc2C1` [compound 95, 7-Methoxy-2-(2,4,5-trimethoxybenzyl)-6-O-sulfamoyl-1,2,3,4-tetrahydroisoquinoline] as the compound, how does the GI50 read?
The GI50 was less than 10 µM.

Which GI50 does the source give for `COc1cc2c(cc1OS(N)(=O)=O)CCN(Cc1cccc(O)c1)C2` [compound 97, 2-(3-Hydroxybenzyl)-7-methoxy-6-O-sulfamoyl-1,2,3,4-tetrahydroisoquinoline] here?
Its GI50 is 50 to 100 µM.

With `COc1cc2c(cc1OS(N)(=O)=O)CCN(Cc1ccc(C#N)cc1)C2` [compound 99, 2-(4-Cyanobenzyl)-7-methoxy-6-O-sulfamoyl-1,2,3,4-tetrahydroisoquinoline] as the compound, how does the GI50 read?
The GI50 was 50 to 100 µM.

Which GI50 does the source give for `COc1cc2c(cc1OS(N)(=O)=O)CCN(Cc1cccc([N+](=O)[O-])c1)C2` [compound 100, 7-Methoxy-2-(3-nitrobenzyl)-6-O-sulfamoyl-1,2,3,4-tetrahydroisoquinoline] here?
The GI50 was less than 10 µM.

For `COc1cc2c(cc1OS(N)(=O)=O)CCN(Cc1cccc(Cl)c1)C2` [compound 101, 2-(3-Chlorobenzyl)-7-methoxy-6-O-sulfamoyl-1,2,3,4-tetrahydroisoquinoline], which GI50 is on record?
The GI50 was less than 10 µM.

For `COc1cc2c(cc1OS(N)(=O)=O)CCN(Cc1cccc(OC(F)(F)F)c1)C2` [compound 102, 7-Methoxy-2-(3-trifluoromethoxybenzyl)-6-O-sulfamoyl-1,2,3,4-tetrahydroisoquinoline], which GI50 is on record?
The GI50 was less than 10 µM.

With `COc1cc2c(cc1OS(N)(=O)=O)CCN(Cc1cccc(OC(C)C)c1)C2` [compound 104, 2-(3-Isopropoxybenzyl)-7-methoxy-6-O-sulfamoyl-1,2,3,4-tetrahydroisoquinoline] as the compound, how does the GI50 read?
Its GI50 is less than 10 µM.

Which GI50 does the source give for `COc1cc2c(cc1OS(N)(=O)=O)CCN(C(=O)c1ccccc1OC)C2` [compound 122, 7-Methoxy-2-(2-methoxybenzoyl)-6-O-sulfamoyl-1,2,3,4-tetrahydroisoquinoline] here?
The GI50 was 10 to 50 µM.

Which GI50 does the source give for `COc1cccc(C(=O)N2CCc3cc(OS(N)(=O)=O)c(OC)cc3C2)c1` [compound 123, 7-Methoxy-2-(3-methoxybenzoyl)-6-O-sulfamoyl-1,2,3,4-tetrahydroisoquinoline] here?
The GI50 was less than 10 µM.

For `COc1ccc(C(=O)N2CCc3cc(OS(N)(=O)=O)c(OC)cc3C2)cc1` [compound 124, 7-Methoxy-2-(4-methoxybenzoyl)-6-O-sulfamoyl-1,2,3,4-tetrahydroisoquinoline], which GI50 is on record?
The GI50 was less than 10 µM.

With `COc1cc2c(cc1OS(N)(=O)=O)CCN(C(=O)c1cc(OC)c(OC)c(OC)c1)C2` [compound 127, 7-methoxy-6-O-sulfamoyl-2-(3,4,5-trimethoxybenzoyl)-1,2,3,4-tetrahydroisoquinoline] as the compound, how does the GI50 read?
Its GI50 is less than 10 µM.

With `COc1ccc(C(=O)N2CCc3cc(OS(N)(=O)=O)c(OC)cc3C2=O)cc1` [compound 147, 2-(4-Methoxybenzoyl)-7-methoxy-6-O-sulfamoyl-3,4-dihydro-2H-isoquinolin-1-one] as the compound, how does the GI50 read?
The GI50 was greater than 100 µM.

With `COc1cc2c(cc1OS(N)(=O)=O)CCN(C(=O)c1ccccc1OC)C2=O` [compound 148, 7-Methoxy-2-(2-methoxybenzoyl)-6-O-sulfamoyl-3,4-dihydro-2H-isoquinolin-1-one] as the compound, how does the GI50 read?
The GI50 was less than 10 µM.

Same assay, conditions: Homo sapiens, DU-145, 96 hours post-treatment, triplicate

For `COc1ccc(OC)c(CN2CCc3cc(OCc4ccccc4)c(OC)cc3C2)c1` [compound 21, 6-Benzyloxy-7-methoxy-2-(2,5-dimethoxybenzyl)-1,2,3,4-tetrahydroisoquinoline], which GI50 is on record?
Its GI50 is 10 to 50 µM.

With `COc1cc2c(cc1O)CCN(Cc1cccc(C)c1)C2` [compound 44, 6-Hydroxy-7-methoxy-2-(3-methylbenzyl)-1,2,3,4-tetrahydroisoquinoline] as the compound, how does the GI50 read?
The GI50 was greater than 100 µM.

For `COc1cc2c(cc1O)CCN(Cc1cccc(NC(C)=O)c1)C2` [compound 50, 6-Hydroxy-7-methoxy-2-(3-acetamidobenzyl)-1,2,3,4-tetrahydroisoquinoline], which GI50 is on record?
Its GI50 is greater than 100 µM.

For `COc1ccc(C(=O)N2CCc3cc(OCc4ccccc4)ccc3C2)cc1OC` [compound 109, 6-Benzyloxy-2-(3,4-Dimethoxybenzoyl)-1,2,3,4-tetrahydroisoquinoline], which GI50 is on record?
The GI50 was 10 to 50 µM.

With `COc1cc(OC)cc(C(=O)N2CCc3cc(O)c(OC)cc3C2)c1` [compound 119, 2-(3,5-Dimethoxybenzoyl)-6-hydroxy-7-methoxy-1,2,3,4-tetrahydroisoquinoline] as the compound, how does the GI50 read?
The GI50 was less than 10 µM.

Which GI50 does the source give for `COc1cc2c(cc1OCc1ccccc1)CCN(C(=O)c1ccc(C#N)cc1)C2=O` [compound 136, 6-(Benzyloxy)-2-(4-cyanobenzoyl)-7-methoxy-3,4-dihydro-2H-isoquinoline-1-one] here?
Its GI50 is greater than 100 µM.
